The target of one assay is PI3Kalpha (Homo sapiens, UniProt P42336). Briefly: PI3K Biochemical Assays (PI3K-alpha assay). The note with it: ATP consumption, luciferase-luciferin; 1 μM ATP, 10 μM PIP2. Summed up: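 Recombinant PI3Kα 3 nM, ATP 1 μM and PIP2 10 μM in Tris pH 7.5 with 10 mM MgCl2, ~2 h at ambient temperature. ATP depletion (held to 40-60%) was read by Kinase-Glo luminescence for IC50. Other isoforms: β 10 nM, δ 4 nM; γ 40 nM, 1 h, 5 mM MgCl2.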

A further assay concerns the target mTORC1 (Homo sapiens, UniProt P42345). In words: mTOR/GbL/Raptor (mTORC1) ELISA Assay. The class given is biochemical. The note with it: phosphorylation of 4E-BP1; 0.2 nM mTORC1, 10 μM ATP. Summed up:
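Kinase reaction: 0.2 nM mTORC1, 10 μM ATP, 50 nM NHis-4E-BP1 in Hepes pH 7.2 with 10 mM MnCl2, 120 min at ambient temperature. Phospho-4E-BP1 was captured on Ni-chelate plates and detected by anti-phospho-4E-BP1 rabbit IgG, HRP secondary and chemiluminescence.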
(In general: An ELISA detects its analyte on a solid surface through an enzyme-linked reagent.)

Sequence of PI3Kalpha (P42336 whole entry, canonical isoform): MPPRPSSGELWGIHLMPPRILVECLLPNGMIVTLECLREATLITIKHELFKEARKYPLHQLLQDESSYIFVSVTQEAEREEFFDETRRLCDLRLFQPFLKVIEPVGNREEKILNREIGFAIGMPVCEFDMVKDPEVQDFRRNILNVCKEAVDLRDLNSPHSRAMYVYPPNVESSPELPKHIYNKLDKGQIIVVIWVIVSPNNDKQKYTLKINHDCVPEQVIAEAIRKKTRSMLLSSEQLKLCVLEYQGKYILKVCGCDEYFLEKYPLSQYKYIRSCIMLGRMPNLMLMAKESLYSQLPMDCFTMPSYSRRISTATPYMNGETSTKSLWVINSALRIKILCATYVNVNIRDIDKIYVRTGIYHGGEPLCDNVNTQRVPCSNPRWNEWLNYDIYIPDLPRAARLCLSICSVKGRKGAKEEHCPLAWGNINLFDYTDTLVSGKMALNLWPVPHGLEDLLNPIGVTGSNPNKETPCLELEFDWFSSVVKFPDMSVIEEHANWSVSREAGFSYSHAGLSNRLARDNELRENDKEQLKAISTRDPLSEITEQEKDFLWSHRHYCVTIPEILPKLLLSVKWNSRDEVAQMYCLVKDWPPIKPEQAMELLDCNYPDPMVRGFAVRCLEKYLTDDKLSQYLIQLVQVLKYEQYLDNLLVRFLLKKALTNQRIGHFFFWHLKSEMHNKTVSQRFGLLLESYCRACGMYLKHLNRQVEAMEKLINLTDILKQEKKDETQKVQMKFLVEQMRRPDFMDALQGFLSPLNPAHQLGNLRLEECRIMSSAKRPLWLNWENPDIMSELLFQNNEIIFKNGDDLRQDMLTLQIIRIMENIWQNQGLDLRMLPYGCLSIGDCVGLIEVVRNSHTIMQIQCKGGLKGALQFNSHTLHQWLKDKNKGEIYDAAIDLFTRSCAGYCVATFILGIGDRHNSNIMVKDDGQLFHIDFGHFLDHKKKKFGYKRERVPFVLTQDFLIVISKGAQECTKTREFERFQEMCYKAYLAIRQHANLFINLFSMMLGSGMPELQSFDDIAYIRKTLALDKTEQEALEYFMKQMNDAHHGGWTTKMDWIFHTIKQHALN
Sequence of PI3Kalpha (P27986 whole entry partner, canonical isoform): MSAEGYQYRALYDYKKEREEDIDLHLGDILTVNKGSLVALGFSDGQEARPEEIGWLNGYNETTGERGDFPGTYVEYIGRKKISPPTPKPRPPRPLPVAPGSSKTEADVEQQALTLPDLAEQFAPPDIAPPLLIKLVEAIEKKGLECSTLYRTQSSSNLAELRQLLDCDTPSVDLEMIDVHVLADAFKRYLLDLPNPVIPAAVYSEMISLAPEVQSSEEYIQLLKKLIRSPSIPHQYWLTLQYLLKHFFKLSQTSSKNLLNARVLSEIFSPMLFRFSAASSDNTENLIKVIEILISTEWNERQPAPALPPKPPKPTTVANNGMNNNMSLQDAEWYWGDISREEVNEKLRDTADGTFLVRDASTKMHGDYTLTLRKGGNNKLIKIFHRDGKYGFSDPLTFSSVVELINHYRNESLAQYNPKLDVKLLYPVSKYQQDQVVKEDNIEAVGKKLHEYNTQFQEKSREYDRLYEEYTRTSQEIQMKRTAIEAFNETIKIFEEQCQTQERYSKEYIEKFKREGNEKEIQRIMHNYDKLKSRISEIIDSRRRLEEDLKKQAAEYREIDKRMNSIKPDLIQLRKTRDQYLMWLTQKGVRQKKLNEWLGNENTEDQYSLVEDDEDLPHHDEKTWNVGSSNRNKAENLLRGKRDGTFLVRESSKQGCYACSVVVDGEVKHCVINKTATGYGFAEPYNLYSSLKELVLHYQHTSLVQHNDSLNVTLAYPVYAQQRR

What is called IC50 is the concentration that inhibits the measured activity by half. The low end stands for greater potency in that assay, the high end for weaker potency in that assay. Regarding `CC1=Cc2nc(N)nc(N3CCOc4ccc(-c5cnc6sc(N)nc6c5)cc4C3)c2CC1(C)C` [Compound 98, 4-[7-(2-amino[1,3]thiazolo[5,4-b]pyridin-6-yl)-2,3-dihydro-1,4-benzoxazepin-4(5H)-yl]-6,6,7-trimethyl-5,6-dihydroquinazolin-2-amine], the IC50 on PI3Kalpha and at mTORC1 was not above 100 nM in each case.

As to `Cc1nc(N)nc(N2CCOc3ccc(-c4cnc5sc(N)nc5c4)cc3C2)c1C(C)C` [Compound 100], the IC50 against PI3Kalpha and at mTORC1 was not above 100 nM in each case.

Consider `Cc1nc(N)nc(N2CCOc3c(F)cc(-c4cnc5sc(N)nc5c4)cc3C2)c1C(C)C` [Compound 101, 6-{4-[2-amino-6-methyl-5-(1-methylethyl)pyrimidin-4-yl]-9-fluoro-2,3,4,5-tetrahydro-1,4-benzoxazepin-7-yl}[1,3]thiazolo[5,4-b]pyridin-2-amine], for which the IC50 against PI3Kalpha and at mTORC1 was not above 100 nM each time.

In the case of `Cc1nc(N)nc(N2CCOc3c(Cl)cc(-c4cnc5sc(N)nc5c4)cc3C2)c1C(C)C` [Compound 102, 6-{4-[2-amino-6-methyl-5-(1-methylethyl)pyrimidin-4-yl]-9-chloro-2,3,4,5-tetrahydro-1,4-benzoxazepin-7-yl}[1,3]thiazolo[5,4-b]pyridin-2-amine], the concentration for half-maximal inhibition (IC50) on PI3Kalpha and against mTORC1 was not above 100 nM in each case.

The values above are taken from US20140018347A1, “BENZOXAZEPINES AS INHIBITORS OF mTOR AND METHODS OF THEIR USE AND MANUFACTURE” (Exelixis, Inc., priority 2010, published 2014).
